According to ChEMBL document CHEMBL5291721, “A preclinical secondary pharmacology resource illuminates target-adverse drug reaction associations of marketed drugs” (Nat Commun, 2023):

Legend:
Melanocortin receptor 3 = Melanocortin receptor 3 (Homo sapiens, UniProt P41968)
[1] = target: T1, Prostaglandin G/H synthase 1 (Rattus norvegicus, UniProt Q63921); type: functional
T1 sequence (Q63921 whole entry): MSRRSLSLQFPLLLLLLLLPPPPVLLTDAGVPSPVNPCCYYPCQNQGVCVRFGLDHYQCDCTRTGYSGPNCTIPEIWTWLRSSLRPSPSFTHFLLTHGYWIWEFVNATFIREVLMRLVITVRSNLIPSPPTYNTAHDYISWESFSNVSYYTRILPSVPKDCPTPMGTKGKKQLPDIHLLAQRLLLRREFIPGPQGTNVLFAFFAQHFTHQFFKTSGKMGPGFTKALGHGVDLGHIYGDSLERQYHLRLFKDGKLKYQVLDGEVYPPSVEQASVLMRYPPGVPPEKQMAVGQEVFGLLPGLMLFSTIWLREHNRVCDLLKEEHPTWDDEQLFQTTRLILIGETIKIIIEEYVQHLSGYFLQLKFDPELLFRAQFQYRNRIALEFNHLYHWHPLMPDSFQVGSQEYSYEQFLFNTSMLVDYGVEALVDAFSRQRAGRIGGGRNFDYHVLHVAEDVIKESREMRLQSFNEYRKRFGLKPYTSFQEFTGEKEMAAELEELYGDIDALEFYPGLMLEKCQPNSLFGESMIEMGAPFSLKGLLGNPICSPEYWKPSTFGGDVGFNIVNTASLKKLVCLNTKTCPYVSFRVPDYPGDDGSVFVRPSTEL

[2] = target: T2, 5-hydroxytryptamine receptor 1A (Homo sapiens, UniProt P08908); type: functional, cell-based
T2 sequence (P08908 whole entry): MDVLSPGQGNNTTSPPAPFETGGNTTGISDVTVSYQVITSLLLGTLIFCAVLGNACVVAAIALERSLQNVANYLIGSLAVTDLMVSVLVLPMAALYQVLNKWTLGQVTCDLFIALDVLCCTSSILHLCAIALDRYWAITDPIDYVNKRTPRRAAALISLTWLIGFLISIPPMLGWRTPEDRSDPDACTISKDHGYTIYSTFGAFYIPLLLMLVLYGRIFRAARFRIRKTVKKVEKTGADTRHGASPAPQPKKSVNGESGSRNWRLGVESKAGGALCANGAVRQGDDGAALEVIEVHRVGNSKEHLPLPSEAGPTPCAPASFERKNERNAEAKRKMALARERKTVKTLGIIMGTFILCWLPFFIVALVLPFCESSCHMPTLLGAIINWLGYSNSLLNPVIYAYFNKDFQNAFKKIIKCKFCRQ

Vasopressin V2 receptor = Vasopressin V2 receptor (Homo sapiens, UniProt P30518)
[3] = target: T3, Amine oxidase [flavin-containing] A (Homo sapiens, UniProt P21397); type: functional
T3 sequence (P21397 whole entry): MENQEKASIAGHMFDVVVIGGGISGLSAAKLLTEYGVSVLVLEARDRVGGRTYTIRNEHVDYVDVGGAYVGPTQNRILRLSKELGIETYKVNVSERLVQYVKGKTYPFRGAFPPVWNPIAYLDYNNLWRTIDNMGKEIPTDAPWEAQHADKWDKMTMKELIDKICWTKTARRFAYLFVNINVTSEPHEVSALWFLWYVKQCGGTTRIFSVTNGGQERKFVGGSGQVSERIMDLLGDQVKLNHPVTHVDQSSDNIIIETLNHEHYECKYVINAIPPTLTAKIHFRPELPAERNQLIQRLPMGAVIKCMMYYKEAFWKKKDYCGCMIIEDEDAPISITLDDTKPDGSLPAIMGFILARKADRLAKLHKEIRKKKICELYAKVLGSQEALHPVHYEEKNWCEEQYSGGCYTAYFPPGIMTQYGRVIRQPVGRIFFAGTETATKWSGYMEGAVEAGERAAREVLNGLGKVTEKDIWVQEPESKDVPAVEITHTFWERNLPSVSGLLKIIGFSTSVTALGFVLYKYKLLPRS

Thromboxane A2 receptor = target: T4, Thromboxane A2 receptor (Homo sapiens, UniProt P21731)
T4 sequence (P21731 whole entry): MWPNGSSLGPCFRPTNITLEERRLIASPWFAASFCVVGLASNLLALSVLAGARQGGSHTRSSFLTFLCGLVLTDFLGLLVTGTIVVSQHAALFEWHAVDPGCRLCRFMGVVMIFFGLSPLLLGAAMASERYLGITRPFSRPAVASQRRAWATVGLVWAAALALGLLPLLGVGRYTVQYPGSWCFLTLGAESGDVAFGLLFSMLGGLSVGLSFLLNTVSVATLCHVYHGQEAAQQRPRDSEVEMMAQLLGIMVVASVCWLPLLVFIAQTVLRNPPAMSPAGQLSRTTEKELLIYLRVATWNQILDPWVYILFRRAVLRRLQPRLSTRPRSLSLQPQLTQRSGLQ

[4] = target: Sodium-dependent noradrenaline transporter (Homo sapiens, UniProt P23975)
[5] = target: 5-hydroxytryptamine receptor 2B (Homo sapiens, UniProt P41595); type: functional, cell-based
[6] = target: T5, Alpha-2A adrenergic receptor (Homo sapiens, UniProt P08913); type: functional, cell-based
T5 sequence (P08913 whole entry): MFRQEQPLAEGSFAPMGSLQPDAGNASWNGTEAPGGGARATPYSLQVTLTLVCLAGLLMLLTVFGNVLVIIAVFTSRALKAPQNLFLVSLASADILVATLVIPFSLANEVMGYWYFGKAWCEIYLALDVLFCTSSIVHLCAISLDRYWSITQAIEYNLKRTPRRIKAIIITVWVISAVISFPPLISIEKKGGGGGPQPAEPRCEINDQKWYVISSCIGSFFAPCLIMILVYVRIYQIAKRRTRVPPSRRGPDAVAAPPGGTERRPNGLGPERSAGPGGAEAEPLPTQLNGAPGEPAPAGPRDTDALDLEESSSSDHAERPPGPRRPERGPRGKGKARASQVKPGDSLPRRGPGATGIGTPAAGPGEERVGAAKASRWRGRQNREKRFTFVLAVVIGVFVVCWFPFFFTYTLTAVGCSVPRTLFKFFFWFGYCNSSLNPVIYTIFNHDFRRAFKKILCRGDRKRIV
Further: assay procedure not described here.

Chain of Vasopressin V2 receptor (P30518 whole entry): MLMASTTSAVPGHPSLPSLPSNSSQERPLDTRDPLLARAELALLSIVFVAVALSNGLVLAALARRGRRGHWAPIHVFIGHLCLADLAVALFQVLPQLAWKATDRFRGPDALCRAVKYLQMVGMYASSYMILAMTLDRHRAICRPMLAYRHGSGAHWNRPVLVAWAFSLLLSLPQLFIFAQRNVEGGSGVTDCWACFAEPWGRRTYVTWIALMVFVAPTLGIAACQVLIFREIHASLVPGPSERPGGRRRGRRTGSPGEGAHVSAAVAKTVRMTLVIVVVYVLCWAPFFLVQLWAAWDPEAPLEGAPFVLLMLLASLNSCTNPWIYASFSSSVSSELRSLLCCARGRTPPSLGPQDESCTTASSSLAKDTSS
Chain of 5-hydroxytryptamine receptor 2B (P41595 whole entry): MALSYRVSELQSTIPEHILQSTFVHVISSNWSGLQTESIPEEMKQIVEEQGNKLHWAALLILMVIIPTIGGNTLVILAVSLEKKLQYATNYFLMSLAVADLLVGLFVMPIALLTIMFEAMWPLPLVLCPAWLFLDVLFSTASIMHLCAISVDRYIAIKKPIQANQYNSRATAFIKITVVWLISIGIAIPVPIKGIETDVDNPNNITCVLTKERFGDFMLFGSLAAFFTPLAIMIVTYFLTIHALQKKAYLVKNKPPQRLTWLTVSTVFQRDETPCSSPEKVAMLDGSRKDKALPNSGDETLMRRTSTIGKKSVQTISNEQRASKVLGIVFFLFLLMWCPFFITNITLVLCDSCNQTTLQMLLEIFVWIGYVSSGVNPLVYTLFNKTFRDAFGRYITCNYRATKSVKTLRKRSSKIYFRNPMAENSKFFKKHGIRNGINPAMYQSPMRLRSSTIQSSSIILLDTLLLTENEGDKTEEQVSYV
Chain of Melanocortin receptor 3 (P41968 whole entry): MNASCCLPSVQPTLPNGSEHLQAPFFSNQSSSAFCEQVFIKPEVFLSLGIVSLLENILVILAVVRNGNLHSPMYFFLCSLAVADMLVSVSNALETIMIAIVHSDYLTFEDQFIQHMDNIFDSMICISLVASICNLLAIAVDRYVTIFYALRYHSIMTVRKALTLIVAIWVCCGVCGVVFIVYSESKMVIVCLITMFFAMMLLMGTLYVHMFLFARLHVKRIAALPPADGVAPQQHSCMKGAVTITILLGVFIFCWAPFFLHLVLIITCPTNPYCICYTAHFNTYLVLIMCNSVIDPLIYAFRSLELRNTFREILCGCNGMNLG
Chain of Sodium-dependent noradrenaline transporter (P23975 whole entry): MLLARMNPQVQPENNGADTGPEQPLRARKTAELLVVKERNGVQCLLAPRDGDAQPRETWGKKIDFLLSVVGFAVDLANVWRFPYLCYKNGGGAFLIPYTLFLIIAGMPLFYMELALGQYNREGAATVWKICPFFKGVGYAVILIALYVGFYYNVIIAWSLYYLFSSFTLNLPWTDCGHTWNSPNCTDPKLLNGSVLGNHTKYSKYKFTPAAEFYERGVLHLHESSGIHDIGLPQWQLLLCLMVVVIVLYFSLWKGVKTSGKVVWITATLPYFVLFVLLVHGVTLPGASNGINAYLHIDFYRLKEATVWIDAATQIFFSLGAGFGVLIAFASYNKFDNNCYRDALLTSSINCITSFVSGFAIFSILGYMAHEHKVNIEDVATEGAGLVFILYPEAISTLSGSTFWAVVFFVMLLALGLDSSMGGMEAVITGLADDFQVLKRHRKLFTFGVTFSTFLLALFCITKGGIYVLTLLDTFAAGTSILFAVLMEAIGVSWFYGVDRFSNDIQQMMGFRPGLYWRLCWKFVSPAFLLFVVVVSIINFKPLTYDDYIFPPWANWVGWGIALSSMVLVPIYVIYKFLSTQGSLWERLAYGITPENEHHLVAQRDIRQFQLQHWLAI

Structure (SMILES) | AC50 (Melanocortin receptor 3) [µM] | AC50 [1] [µM] | AC50 [2] [µM] | AC50 (Vasopressin V2 receptor) [µM] | AC50 [3] [µM] | AC50 (Thromboxane A2 receptor) [µM] | AC50 [4] [µM] | AC50 [5] [µM] | AC50 [6] [µM]
Nc1nc(O)c2ncn(COC(CO)CO)c2n1 [GANCICLOVIR] | > 30 | > 30 | > 30 | > 30 | > 30 | > 30 | > 30 | > 30 | > 30
Cc1cnc(NC(=O)C2=C(O)c3ccccc3S(=O)(=O)N2C)s1 [MELOXICAM] | > 30 | > 30 | > 10 | > 30 | > 10 | > 30 | > 10 | > 10 | > 10
CC(=O)/N=c1/sc(S(N)(=O)=O)nn1C [METHAZOLAMIDE] | > 10 | > 10 | > 10 | > 10 | > 10 | > 10 | > 10 | > 10 | > 10
CC[C@@H](CO)NC(=O)[C@@H]1C=C2c3cccc4[nH]cc(c34)C[C@H]2N(C)C1 [METHYLERGONOVINE] | > 30 | > 30 | 0.0144 | > 30 | > 30 | > 30 | > 30 | 0.0257 | > 30
CC(=O)Oc1ccccc1C(=O)Nc1ncc([N+](=O)[O-])s1 [NITAZOXANIDE] | 14 | 0.0031 | > 30 | 14 | 7.5 | 5 | 5.1 | > 30 | > 30
CNCCC=C1c2ccccc2CCc2ccccc21 [NORTRIPTYLINE] | 11 | > 30 | > 30 | > 30 | > 30 | > 30 |  | > 30 | 
COc1ccnc(C[S+]([O-])c2nc3ccc(OC(F)F)cc3[nH]2)c1OC (configuration not stated) [PANTOPRAZOLE] | > 30 | > 30 | > 10 | > 30 | > 10 | > 30 | > 10 | > 10 | > 10
COc1ccc(Cc2nccc3cc(OC)c(OC)cc23)cc1OC [PAPAVERINE] | > 30 | > 30 | > 30 | > 30 | > 30 | > 30 | > 30 | > 30 | > 30
CNC[C@H](O)c1cccc(O)c1 [PHENYLEPHRINE] | > 30 | > 30 | > 30 | > 30 | > 10 | > 30 | > 10 | > 30 | 
O=C1NC(=O)C(c2ccccc2)(c2ccccc2)N1 [PHENYTOIN] | > 30 | > 30 | > 30 | > 30 | > 30 | > 30 | > 30 | > 30 | > 30
